From PMC2630467 (Journal of medicinal chemistry, 2008)
Entries after “also recorded” stand apart in the source; their conditions may differ.

Key:
CYP2C9 [1] = target: T1, CYP2C9 (Homo sapiens, UniProt P11712); assay: UV difference spectroscopy of binding and substrate titrations with purified 2C9; conditions: UV difference spectra 350-500 nm
CYP2C9 [2] = target: T1, CYP2C9; assay: EPR studies on binding modes with ferric 2C9; conditions: ferric 2C9 18.5 μM, substrate 1 mM, 20 K
CYP2C9 [3] = target: T1, CYP2C9; assay: Reconstituted purified 2C9 system inhibition; format: biochemical

T1 sequence (P11712 whole entry): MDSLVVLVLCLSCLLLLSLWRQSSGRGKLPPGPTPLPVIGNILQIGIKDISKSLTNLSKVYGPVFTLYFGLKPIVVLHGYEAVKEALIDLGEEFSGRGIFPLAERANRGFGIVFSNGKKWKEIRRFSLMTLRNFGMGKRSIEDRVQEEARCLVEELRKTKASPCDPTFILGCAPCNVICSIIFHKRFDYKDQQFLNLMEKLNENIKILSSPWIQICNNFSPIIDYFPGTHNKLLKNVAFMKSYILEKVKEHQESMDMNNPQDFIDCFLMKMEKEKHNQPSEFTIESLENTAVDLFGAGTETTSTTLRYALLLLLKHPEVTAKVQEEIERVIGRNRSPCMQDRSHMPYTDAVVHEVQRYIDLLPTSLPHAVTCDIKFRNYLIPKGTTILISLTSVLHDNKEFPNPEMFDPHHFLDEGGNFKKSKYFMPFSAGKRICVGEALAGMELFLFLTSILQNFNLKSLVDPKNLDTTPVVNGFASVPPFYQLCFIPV

Row | Binding Type UV (CYP2C9 [1]) | Binding Type EPR (CYP2C9 [2]) | Ki (CYP2C9 [3]) | Structure (SMILES)
1 | typical Type II binding spectra | Type II |  | O=C(c1cc(-c2ccncc2)nc2ccccc12)N1CCCCC1 [Compound 1, Piperidin-1-yl(2-(pyridin-4-yl)quinolin-4-yl)methanone]
2 | mixed Type I and Type II binding | Type I |  | O=C(c1cc(-c2cccnc2)nc2ccccc12)N1CCCCC1 [Compound 2, Piperidin-1-yl(2-(pyridin-3-yl)quinolin-4-yl)methanone]
3 |  | Type I |  | O=C(Nc1ccc2ccccc2c1)c1cc(-c2cccnc2)nc2ccccc12 [Compound 8, N-(naphthalen-2-yl)-2-(pyridin-3-yl)quinoline-4-carboxamide]
4 |  | Type I |  | O=C(Nc1ccc2ccccc2c1)c1cc(-c2ccccn2)nc2ccccc12 [Compound 9, N-(naphthalen-2-yl)-2-(pyridin-2-yl)quinoline-4-carboxamide]
5 | mixed Type II and Type I binding modes |  |  | O=C(Nc1ccccc1)c1cc(-c2cccnc2)nc2ccccc12 [Compound 14, N-phenyl-2-(pyridin-3-yl)quinoline-4-carboxamide]
6 |  | Type I |  | Cc1cc(C)c2nc(-c3cccnc3)cc(C(=O)Nc3ccc4ccccc4c3)c2c1 [Compound 17, 6,8-dimethyl-N-(naphthalen-2-yl)-2-(pyridin-3-yl)quinoline-4-carboxamide]
7 |  | Type I |  | Cc1cc(C)c2nc(-c3ccccn3)cc(C(=O)Nc3ccc4ccccc4c3)c2c1 [Compound 18, 6,8-dimethyl-N-(naphthalen-2-yl)-2-(pyridin-2-yl)quinoline-4-carboxamide]

Row | Structure (SMILES) | Binding Type UV (CYP2C9 [1]) | Binding Type EPR (CYP2C9 [2]) | Ki (CYP2C9 [3])
8 | O=C(Nc1ccc2ccccc2c1)c1cc(-c2ccncc2)nc2ccccc12 [Compound 7, N-(naphthalen-2-yl)-2-(pyridin-4-yl)quinoline-4-carboxamide] |  | low-spin shift; also recorded: pure Type II | 
9 | O=C(Nc1ccccc1)c1cc(-c2ccncc2)nc2ccccc12 [Compound 13, N-phenyl-2-(pyridin-4-yl)quinoline-4-carboxamide] | clear Type II binding spectra; also recorded: typical Type II binding spectra |  | 79.8 nM
10 | O=C(Nc1ccccc1)c1cc(-c2ccccn2)nc2ccccc12 [Compound 15, N-phenyl-2-(pyridin-2-yl)quinoline-4-carboxamide] | does not give a either a Type I or Type II binding spectra |  | 
11 | O=C(Nc1ccc2ccccc2c1)c1cc(-c2ccncc2)nc2ccc(Cl)cc12 [Compound 19, 6-chloro-N-(naphthalen-2-yl)-2-(pyridin-4-yl)quinoline-4-carboxamide] |  | low-spin shift; also recorded: mixed mode; also recorded: Type II/Type I | 
